PubChem BioAssay (NCI)
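A five-concentration, 48-hour dose response in 96-well plates underlies each endpoint, interpolated linearly between surrounding concentrations. At the TGI there is no net growth.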

How the values were obtained:
Assay in all cases: NCI tumour cell line growth inhibition, 48 h
[1] = tested on: LOX IMVI melanoma
[2] = tested on: NCI/ADR-RES ovarian
[3] = tested on: A549 NSCLC
[4] = tested on: CCRF-CEM leukemia
[5] = tested on: ACHN renal
[6] = tested on: TK-10 renal
[7] = tested on: SW-620 colon
[8] = tested on: BT-549 breast
[9] = tested on: COLO 205 colon
[10] = tested on: UACC-257 melanoma
[11] = tested on: OVCAR-4 ovarian
[12] = tested on: MDA-MB-231 breast
[13] = tested on: CAKI-1 renal
[14] = tested on: T-47D breast
[15] = tested on: MALME-3M melanoma
[16] = tested on: HOP-92 NSCLC
[17] = tested on: NCI-H460 lung
[18] = tested on: DU-145 prostate
[19] = tested on: RXF 393 renal
[20] = tested on: SF-539 CNS
[21] = tested on: SK-MEL-5 melanoma
[22] = tested on: SF-295 CNS
[23] = tested on: IGROV1 ovarian
[24] = tested on: HS 578T breast
[25] = tested on: HOP-62 NSCLC
[26] = tested on: SN12C renal
[27] = tested on: HCT-116 colon
[28] = tested on: 786-0 renal
[29] = tested on: EKVX NSCLC
[30] = tested on: MDA-N
[31] = tested on: RPMI-8226 leukemia
[32] = tested on: HL-60(TB) leukemia
[33] = tested on: OVCAR-8 ovarian
[34] = tested on: UACC-62 melanoma
[35] = tested on: KM12 colon
[36] = tested on: PC-3 prostate
[37] = tested on: OVCAR-3 ovarian
[38] = tested on: SK-OV-3 ovarian
[39] = tested on: MCF7 breast
[40] = tested on: SF-268 CNS
[41] = tested on: A498 renal
[42] = tested on: SNB-19 CNS
[43] = tested on: HT29 colon
[44] = tested on: NCI-H226 lung
[45] = tested on: M14 melanoma
[46] = tested on: SK-MEL-2 melanoma
[47] = tested on: NCI-H522 lung
[48] = tested on: NCI-H23 lung
[49] = tested on: HCT-15 colon
[50] = tested on: MDA-MB-435
[51] = tested on: OVCAR-5 ovarian
[52] = tested on: SNB-75 CNS
[53] = tested on: SK-MEL-28 melanoma
[54] = tested on: MOLT-4 leukemia
[55] = tested on: UO-31 renal
[56] = tested on: U251 CNS
[57] = tested on: HCC-2998 colon
[58] = tested on: K-562 leukemia

For `O=[N+]([O-])c1cccc2nc3ccccc3c(NCCCN3CCOCC3)c12`, the TGI [1] was 1660 nM, the TGI [2] was 341 nM and the TGI [3] was 67.4 nM. For the same compound, the TGI [4] was 130 nM, the TGI [5] was 50.6 nM and the TGI [6] was 149 nM. For the same compound, the TGI [7] was 686 nM, the TGI [8] was 115 nM and the TGI [9] was 30.3 nM. The TGI [10] was 52.7 nM, the TGI [11] was 49.4 nM and the TGI [12] was 97.3 nM. It also gave a TGI [13] of 78.5 nM, a TGI [14] of 241 nM and a TGI [15] of 26 nM. The TGI [16] was 43.4 nM, the TGI [17] was 66.1 nM and the TGI [18] was 29.8 nM. For the same compound, the TGI [19] was 29.4 nM, the TGI [20] was 138 nM and the TGI [21] was 26.3 nM. For the same compound, the TGI [22] was 85.4 nM, the TGI [23] was 84 nM and the TGI [24] was greater than 100000 nM. It also gave a TGI [25] of 61.8 nM, a TGI [26] of 45.5 nM and a TGI [27] of less than 29.8 nM. The TGI [28] was 40.4 nM, the TGI [29] was 55.9 nM and the TGI [30] was 14.9 nM. It also gave a TGI [31] of 187 nM, a TGI [32] of 157 nM and a TGI [33] of 141 nM. The TGI [34] was 32.6 nM, the TGI [35] was 54 nM and the TGI [36] was 68.4 nM. It also gave a TGI [37] of 48.4 nM, a TGI [38] of 267 nM and a TGI [39] of 103 nM. The TGI [40] was 744 nM, the TGI [41] was 37.7 nM and the TGI [42] was 177 nM. It also gave a TGI [43] of 34.9 nM, a TGI [44] of 50.1 nM and a TGI [45] of 23.3 nM. For the same compound, the TGI [46] was 36.2 nM, the TGI [47] was 93.6 nM and the TGI [48] was 41.8 nM. It also gave a TGI [49] of 49.1 nM, a TGI [50] of 24.2 nM and a TGI [51] of 84.1 nM. For the same compound, the TGI [52] was 114 nM, the TGI [53] was 138 nM and the TGI [54] was 24200 nM. The TGI [55] was 56.4 nM and the TGI [56] was 140 nM.
`CN(C)CCNC(=O)c1cccc2nc3cccc(F)c3nc12` gave a TGI [1] of 2240 nM, a TGI [57] of 4310 nM and a TGI [2] of 3830 nM. For the same compound, the TGI [3] was 2850 nM, the TGI [4] was 10400 nM and the TGI [5] was 3560 nM. The TGI [6] was 6450 nM, the TGI [7] was 5820 nM and the TGI [8] was 11400 nM. The TGI [9] was 1890 nM, the TGI [10] was 3860 nM and the TGI [11] was 4830 nM. The TGI [12] was 6770 nM, the TGI [13] was 15800 nM and the TGI [14] was greater than 28400 nM. For the same compound, the TGI [15] was 6350 nM, the TGI [16] was 3630 nM and the TGI [17] was 2730 nM. It also gave a TGI [18] of 12900 nM, a TGI [19] of 4110 nM and a TGI [20] of 7700 nM. The TGI [21] was 2380 nM, the TGI [22] was 6790 nM and the TGI [23] was 9670 nM. It also gave a TGI [24] of 9270 nM, a TGI [25] of 8550 nM and a TGI [26] of 5480 nM. It also gave a TGI [27] of 4560 nM, a TGI [28] of 24800 nM and a TGI [29] of 6160 nM. It also gave a TGI [30] of 3130 nM, a TGI [31] of 5650 nM and a TGI [32] of 6390 nM. For the same compound, the TGI [33] was 3680 nM, the TGI [34] was greater than 19800 nM and the TGI [35] was 8430 nM. The TGI [36] was 4260 nM, the TGI [37] was 8970 nM and the TGI [39] was 6560 nM. For the same compound, the TGI [40] was 19400 nM, the TGI [41] was 5140 nM and the TGI [42] was greater than 35000 nM. For the same compound, the TGI [43] was 8340 nM, the TGI [44] was 3210 nM and the TGI [45] was 4580 nM. For the same compound, the TGI [58] was 12300 nM, the TGI [46] was 4860 nM and the TGI [47] was 2740 nM. For the same compound, the TGI [48] was 5170 nM, the TGI [49] was 5770 nM and the TGI [50] was 2920 nM. It also gave a TGI [51] of 7060 nM, a TGI [52] of 13200 nM and a TGI [53] of 11500 nM. It also gave a TGI [54] of 14200 nM, a TGI [55] of 4830 nM and a TGI [56] of 6610 nM.
